Measurements published in PubChem BioAssay (NCI).
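A five-concentration, 48-hour dose response in 96-well plates underlies each endpoint, interpolated linearly between surrounding concentrations. The concentration for 50% growth inhibition is given as GI50. TGI is the concentration that stops growth completely.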

Key:
Experiment in all cases: NCI tumour cell line growth inhibition, 48 h
[1] = system: 786-0 renal
[2] = system: A498 renal
[3] = system: A549 NSCLC
[4] = system: ACHN renal
[5] = system: BT-549 breast
[6] = system: CAKI-1 renal
[7] = system: COLO 205 colon
[8] = system: DU-145 prostate
[9] = system: EKVX NSCLC
[10] = system: HCT-116 colon
[11] = system: HCT-15 colon
[12] = system: HL-60(TB) leukemia
[13] = system: HOP-62 NSCLC
[14] = system: HOP-92 NSCLC
[15] = system: HS 578T breast
[16] = system: HT29 colon
[17] = system: IGROV1 ovarian
[18] = system: K-562 leukemia
[19] = system: KM12 colon
[20] = system: LOX IMVI melanoma
[21] = system: M14 melanoma
[22] = system: MCF7 breast
[23] = system: MDA-MB-231 breast
[24] = system: MDA-MB-435
[25] = system: MOLT-4 leukemia
[26] = system: NCI-H226 lung
[27] = system: NCI-H23 lung
[28] = system: NCI-H460 lung
[29] = system: NCI-H522 lung
[30] = system: NCI/ADR-RES ovarian
[31] = system: OVCAR-3 ovarian
[32] = system: OVCAR-4 ovarian
[33] = system: OVCAR-5 ovarian
[34] = system: OVCAR-8 ovarian
[35] = system: PC-3 prostate
[36] = system: RPMI-8226 leukemia
[37] = system: RXF 393 renal
[38] = system: SF-268 CNS
[39] = system: SF-295 CNS
[40] = system: SF-539 CNS
[41] = system: SK-MEL-2 melanoma
[42] = system: SK-MEL-28 melanoma
[43] = system: SK-MEL-5 melanoma
[44] = system: SK-OV-3 ovarian
[45] = system: SN12C renal
[46] = system: SNB-19 CNS
[47] = system: SNB-75 CNS
[48] = system: SR leukemia
[49] = system: SW-620 colon
[50] = system: TK-10 renal
[51] = system: U251 CNS
[52] = system: UACC-257 melanoma
[53] = system: UACC-62 melanoma
[54] = system: UO-31 renal

SMILES: Nc1cc(N)c2nc(-c3ccccc3)c(Oc3ccc(F)cc3)nc2c1
- GI50 [1]: 15.7 µM
- TGI [1]: 36.3 µM
- GI50 [2]: 21.9 µM
- TGI [2]: 39.6 µM
- GI50 [3]: 24.2 µM
- TGI [3]: 46.3 µM
- GI50 [4]: 21.8 µM
- TGI [4]: 85.9 µM
- GI50 [5]: 15 µM
- TGI [5]: 34.8 µM
- GI50 [6]: 19.4 µM
- TGI [6]: 37 µM
- GI50 [7]: 20 µM
- TGI [7]: 36.5 µM
- GI50 [8]: 17.2 µM
- TGI [8]: 36.8 µM
- GI50 [9]: 14.6 µM
- TGI [9]: 33.7 µM
- GI50 [10]: 14.8 µM
- TGI [10]: 80.7 µM
- GI50 [11]: 36 µM
- TGI [11]: > 100 µM
- GI50 [12]: 18.5 µM
- TGI [12]: 64.8 µM
- GI50 [13]: 21.5 µM
- TGI [13]: 49.5 µM
- GI50 [14]: 12.2 µM
- TGI [14]: 29.8 µM
- GI50 [15]: 19.8 µM
- TGI [15]: 53.7 µM
- GI50 [16]: 22.7 µM
- TGI [16]: 50.7 µM
- GI50 [17]: 28.5 µM
- TGI [17]: > 100 µM
- GI50 [18]: 10.9 µM
- TGI [18]: > 100 µM
- GI50 [19]: 14.5 µM
- TGI [19]: 40.3 µM
- GI50 [20]: 43.3 µM
- TGI [20]: > 100 µM
- GI50 [21]: 17.1 µM
- TGI [21]: 45 µM
- GI50 [22]: 20.3 µM
- TGI [22]: > 100 µM
- GI50 [23]: 3.87 µM
- TGI [23]: 28.8 µM
- GI50 [24]: 15.8 µM
- TGI [24]: 32.6 µM
- GI50 [25]: 6.58 µM
- TGI [25]: > 100 µM
- GI50 [26]: 20.3 µM
- TGI [26]: 49.1 µM
- GI50 [27]: 20.7 µM
- TGI [27]: 40.2 µM
- GI50 [28]: 39.6 µM
- TGI [28]: > 100 µM
- GI50 [29]: 64.7 µM
- TGI [29]: > 100 µM
- GI50 [30]: 18.2 µM
- TGI [30]: 36.1 µM
- GI50 [31]: 15.4 µM
- TGI [31]: 41.7 µM
- GI50 [32]: 8.32 µM
- TGI [32]: 35.2 µM
- GI50 [33]: 20.6 µM
- TGI [33]: 47.6 µM
- GI50 [34]: 22.5 µM
- TGI [34]: 47.4 µM
- GI50 [35]: 7.27 µM
- TGI [35]: 46.3 µM
- GI50 [36]: 12.2 µM
- TGI [36]: 46.4 µM
- GI50 [37]: 21.1 µM
- TGI [37]: 46.5 µM
- GI50 [38]: 13.8 µM
- TGI [38]: 47.6 µM
- GI50 [39]: 20.3 µM
- TGI [39]: 38.5 µM
- GI50 [40]: 18.1 µM
- TGI [40]: 35.7 µM
- GI50 [41]: 43 µM
- TGI [41]: > 100 µM
- GI50 [42]: 19.4 µM
- TGI [42]: 46.5 µM
- GI50 [43]: 12.2 µM
- TGI [43]: 31.8 µM
- GI50 [44]: 20.7 µM
- TGI [44]: 41.4 µM
- GI50 [45]: 19.3 µM
- TGI [45]: 52.7 µM
- GI50 [46]: 17.3 µM
- TGI [46]: 33.8 µM
- GI50 [47]: 23.5 µM
- TGI [47]: 49.4 µM
- GI50 [48]: 8.15 µM
- TGI [48]: > 100 µM
- GI50 [49]: 19.5 µM
- TGI [49]: 50.1 µM
- GI50 [50]: 20.4 µM
- TGI [50]: 46.3 µM
- GI50 [51]: 23.2 µM
- TGI [51]: 78.6 µM
- GI50 [52]: 23.2 µM
- TGI [52]: 42.6 µM
- GI50 [53]: 15.8 µM
- TGI [53]: 33.2 µM
- GI50 [54]: 29.6 µM
- TGI [54]: > 100 µM
